Consider 3 compounds from doi:10.1101/2023.07.03.547578v2 (bioRxiv, 2023).

Like-named read-outs stand apart in the source and are kept apart here.

The conditions of series [1]: ref Smith et al., 2021; cited from earlier work.
Series [2] is described as follows: In vivo pharmacokinetic study. The arrangement: species or system mouse. The following applies: 3 mg/kg i.p.
Another series in a line: Stability in plasma. In kind it is in vitro ADME. The following applies: abstract; method not given.
Series [3] deals with T1, RyR2 (Sus scrofa, UniProt A0A5G2R1W3). Nature of the series: [3H]ryanodine binding assay in cardiac SR vesicles. The arrangement: species or system porcine.
The test system of series [4] is Casq2-/- mice. Nature of the series: Catecholamine-induced arrhythmia challenge. In kind it is in vivo, mouse. The following applies: 3 and 30 mg/kg i.p., ECG.
For series [5] the following is noted: mice; ref Blackwell et al., 2023; cited from earlier work.
For series [6], the target named is T1, RyR2. The following applies: read-out: IC50, ryanodine binding assay; ref Batiste et al., 2019; cited from earlier work.
Series [7] relates to RyR2-mediated spontaneous Ca2+ release in Casq2-/- cardiomyocytes. The following applies: read-out: IC50, intact cardiomyocyte assay; ref Batiste et al., 2019; cited from earlier work.
Series [8] has as its system Casq2-/- mice. The settings on record: ref Blackwell et al., 2023, cited from earlier work.
Series [9] concerns RyR2. The settings on record: ref Ohshiro et al., 2012; cited from earlier work.
A further series relates to insect RyR. The settings on record: ref Ohshiro et al., 2012; cited from earlier work.

T1 sequence (A0A5G2R1W3 20-4900): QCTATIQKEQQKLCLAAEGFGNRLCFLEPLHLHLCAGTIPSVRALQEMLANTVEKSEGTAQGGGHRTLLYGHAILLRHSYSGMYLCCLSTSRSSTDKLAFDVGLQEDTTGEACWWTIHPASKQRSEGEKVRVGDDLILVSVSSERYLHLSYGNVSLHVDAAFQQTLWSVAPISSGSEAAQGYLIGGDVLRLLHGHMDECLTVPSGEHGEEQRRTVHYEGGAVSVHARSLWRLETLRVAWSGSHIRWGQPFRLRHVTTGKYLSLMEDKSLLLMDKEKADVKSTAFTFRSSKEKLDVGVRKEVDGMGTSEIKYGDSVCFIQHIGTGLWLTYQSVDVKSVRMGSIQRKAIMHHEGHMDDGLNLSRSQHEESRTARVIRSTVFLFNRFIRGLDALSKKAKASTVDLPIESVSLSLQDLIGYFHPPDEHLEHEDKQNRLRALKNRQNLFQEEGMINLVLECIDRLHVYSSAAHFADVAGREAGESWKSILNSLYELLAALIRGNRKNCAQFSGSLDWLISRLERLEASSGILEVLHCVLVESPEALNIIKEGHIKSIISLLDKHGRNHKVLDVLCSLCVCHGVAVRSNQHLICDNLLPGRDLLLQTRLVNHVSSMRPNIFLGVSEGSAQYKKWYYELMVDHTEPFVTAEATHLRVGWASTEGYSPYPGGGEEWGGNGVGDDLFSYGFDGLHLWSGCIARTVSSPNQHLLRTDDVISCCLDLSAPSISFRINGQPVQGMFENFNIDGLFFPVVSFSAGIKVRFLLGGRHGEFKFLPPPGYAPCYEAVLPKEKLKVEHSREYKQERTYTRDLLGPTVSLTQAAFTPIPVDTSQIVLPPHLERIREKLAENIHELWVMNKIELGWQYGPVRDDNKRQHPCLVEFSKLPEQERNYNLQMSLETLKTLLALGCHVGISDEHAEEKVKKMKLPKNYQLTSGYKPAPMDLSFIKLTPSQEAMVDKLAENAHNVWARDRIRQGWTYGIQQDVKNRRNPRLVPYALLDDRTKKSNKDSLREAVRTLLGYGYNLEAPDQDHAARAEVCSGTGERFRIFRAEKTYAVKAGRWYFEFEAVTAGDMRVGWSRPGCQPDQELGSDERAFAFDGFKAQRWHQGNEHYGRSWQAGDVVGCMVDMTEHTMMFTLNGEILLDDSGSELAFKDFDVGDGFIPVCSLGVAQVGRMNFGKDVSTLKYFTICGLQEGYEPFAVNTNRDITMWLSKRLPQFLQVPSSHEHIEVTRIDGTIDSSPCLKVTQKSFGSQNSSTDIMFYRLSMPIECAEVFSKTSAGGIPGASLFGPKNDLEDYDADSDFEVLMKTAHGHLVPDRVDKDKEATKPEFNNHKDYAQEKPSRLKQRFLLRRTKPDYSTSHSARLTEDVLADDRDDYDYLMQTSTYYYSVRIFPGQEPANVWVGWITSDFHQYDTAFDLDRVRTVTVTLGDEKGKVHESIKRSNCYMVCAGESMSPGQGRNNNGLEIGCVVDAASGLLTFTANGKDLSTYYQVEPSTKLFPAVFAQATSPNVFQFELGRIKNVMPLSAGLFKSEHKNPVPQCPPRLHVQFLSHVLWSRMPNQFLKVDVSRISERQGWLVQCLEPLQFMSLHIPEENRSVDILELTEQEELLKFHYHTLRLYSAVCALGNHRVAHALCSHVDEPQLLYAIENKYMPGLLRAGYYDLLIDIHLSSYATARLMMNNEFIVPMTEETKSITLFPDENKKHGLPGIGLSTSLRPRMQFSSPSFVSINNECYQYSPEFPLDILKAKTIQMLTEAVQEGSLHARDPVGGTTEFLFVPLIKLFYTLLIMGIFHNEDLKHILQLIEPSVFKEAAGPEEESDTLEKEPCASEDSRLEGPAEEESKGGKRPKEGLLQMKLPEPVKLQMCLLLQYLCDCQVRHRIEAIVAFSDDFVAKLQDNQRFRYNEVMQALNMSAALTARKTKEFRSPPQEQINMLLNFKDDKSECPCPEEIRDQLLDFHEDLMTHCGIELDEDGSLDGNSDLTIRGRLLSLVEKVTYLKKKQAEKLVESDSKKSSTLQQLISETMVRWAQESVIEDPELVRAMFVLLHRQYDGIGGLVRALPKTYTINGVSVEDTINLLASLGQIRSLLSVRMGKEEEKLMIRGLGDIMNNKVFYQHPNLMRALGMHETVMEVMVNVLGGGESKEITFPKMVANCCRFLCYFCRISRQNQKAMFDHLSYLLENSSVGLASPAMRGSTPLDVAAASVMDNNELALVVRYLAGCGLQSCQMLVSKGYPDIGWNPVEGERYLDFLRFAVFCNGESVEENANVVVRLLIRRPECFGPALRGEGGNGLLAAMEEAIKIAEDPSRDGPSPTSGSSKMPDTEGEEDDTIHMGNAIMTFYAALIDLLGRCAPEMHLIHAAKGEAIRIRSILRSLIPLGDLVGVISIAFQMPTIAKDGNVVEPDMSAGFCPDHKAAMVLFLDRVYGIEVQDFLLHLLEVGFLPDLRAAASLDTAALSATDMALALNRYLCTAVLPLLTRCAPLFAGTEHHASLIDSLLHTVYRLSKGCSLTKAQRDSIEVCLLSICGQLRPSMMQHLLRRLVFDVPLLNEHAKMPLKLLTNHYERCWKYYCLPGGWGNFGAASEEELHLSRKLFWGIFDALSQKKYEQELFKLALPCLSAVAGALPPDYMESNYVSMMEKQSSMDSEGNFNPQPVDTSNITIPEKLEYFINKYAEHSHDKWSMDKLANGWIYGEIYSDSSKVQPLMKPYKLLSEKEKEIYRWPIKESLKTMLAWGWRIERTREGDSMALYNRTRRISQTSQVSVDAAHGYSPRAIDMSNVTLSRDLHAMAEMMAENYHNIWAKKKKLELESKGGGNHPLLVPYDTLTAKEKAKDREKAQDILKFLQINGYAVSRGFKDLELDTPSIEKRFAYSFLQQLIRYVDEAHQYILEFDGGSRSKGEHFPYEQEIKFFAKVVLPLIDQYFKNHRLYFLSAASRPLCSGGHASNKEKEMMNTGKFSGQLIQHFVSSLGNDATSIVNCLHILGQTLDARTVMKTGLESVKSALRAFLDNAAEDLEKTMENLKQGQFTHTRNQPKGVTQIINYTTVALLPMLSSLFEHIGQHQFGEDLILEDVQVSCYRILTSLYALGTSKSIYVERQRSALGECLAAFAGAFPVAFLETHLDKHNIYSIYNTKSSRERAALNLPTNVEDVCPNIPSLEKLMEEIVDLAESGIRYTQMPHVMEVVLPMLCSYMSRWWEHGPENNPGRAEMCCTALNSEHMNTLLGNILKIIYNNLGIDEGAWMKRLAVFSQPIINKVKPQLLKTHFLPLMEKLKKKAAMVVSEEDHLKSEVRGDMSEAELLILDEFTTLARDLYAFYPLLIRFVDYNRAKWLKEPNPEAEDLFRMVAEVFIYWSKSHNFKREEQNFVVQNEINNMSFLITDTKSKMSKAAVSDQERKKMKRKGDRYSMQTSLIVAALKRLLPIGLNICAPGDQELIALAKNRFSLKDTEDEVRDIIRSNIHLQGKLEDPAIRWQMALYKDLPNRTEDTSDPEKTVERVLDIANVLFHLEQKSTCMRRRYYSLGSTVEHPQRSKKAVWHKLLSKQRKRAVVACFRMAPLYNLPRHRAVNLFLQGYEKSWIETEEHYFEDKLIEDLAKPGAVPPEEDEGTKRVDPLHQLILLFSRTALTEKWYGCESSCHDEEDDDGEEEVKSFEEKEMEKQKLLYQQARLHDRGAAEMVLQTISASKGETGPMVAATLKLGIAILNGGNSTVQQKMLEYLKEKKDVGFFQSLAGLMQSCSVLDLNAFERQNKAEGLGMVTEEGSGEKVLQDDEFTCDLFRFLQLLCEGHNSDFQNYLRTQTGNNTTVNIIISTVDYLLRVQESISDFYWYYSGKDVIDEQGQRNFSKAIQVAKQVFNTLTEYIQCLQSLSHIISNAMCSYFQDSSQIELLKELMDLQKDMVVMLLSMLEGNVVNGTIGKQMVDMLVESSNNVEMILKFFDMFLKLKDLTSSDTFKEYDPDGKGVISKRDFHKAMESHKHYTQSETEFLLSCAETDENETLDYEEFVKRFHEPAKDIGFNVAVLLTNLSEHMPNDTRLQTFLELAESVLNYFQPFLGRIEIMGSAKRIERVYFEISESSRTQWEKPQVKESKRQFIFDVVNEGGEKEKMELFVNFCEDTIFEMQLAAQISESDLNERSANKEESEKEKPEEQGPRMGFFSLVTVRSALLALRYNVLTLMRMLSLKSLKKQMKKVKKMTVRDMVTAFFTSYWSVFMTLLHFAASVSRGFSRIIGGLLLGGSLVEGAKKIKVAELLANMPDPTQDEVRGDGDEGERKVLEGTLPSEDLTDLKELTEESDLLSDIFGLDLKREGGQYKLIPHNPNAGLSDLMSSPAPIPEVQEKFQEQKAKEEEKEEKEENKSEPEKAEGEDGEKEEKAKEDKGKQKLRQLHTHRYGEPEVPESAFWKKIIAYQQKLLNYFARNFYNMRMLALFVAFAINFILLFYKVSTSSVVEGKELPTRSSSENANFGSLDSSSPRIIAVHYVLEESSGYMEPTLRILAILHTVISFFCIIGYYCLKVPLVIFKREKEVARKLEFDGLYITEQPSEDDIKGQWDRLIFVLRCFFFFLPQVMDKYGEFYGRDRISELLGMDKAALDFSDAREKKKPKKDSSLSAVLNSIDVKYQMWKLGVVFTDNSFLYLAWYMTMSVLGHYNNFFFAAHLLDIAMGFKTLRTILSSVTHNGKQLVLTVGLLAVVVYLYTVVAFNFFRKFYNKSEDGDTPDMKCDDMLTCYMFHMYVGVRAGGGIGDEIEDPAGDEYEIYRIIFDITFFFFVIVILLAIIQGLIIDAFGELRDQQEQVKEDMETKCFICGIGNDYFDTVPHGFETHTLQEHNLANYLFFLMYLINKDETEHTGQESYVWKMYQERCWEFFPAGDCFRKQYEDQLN

In the case of `CCCCC[C@@H]1OC(=O)[C@@H](C)N(C)C(=O)[C@H](CCCCC)OC(=O)[C@@H](C)N(C)C(=O)[C@H](CCCCC)OC(=O)[C@@H](C)N(C)C1=O` (single isomer, unassigned) [ent-B1, ent-verticilide B1], in series [1], the “lipophilicity relative to ent-1” value was “loss of lipophilicity”. In addition, in series [2] (CD1 mice, up to 480 min), the “clinical observation during the PK study” value is listed as “no abnormality”. Moreover, the “time of peak plasma concentration” value in series [2] (mice, plasma) worked out at 10 min. Moreover, in [2] (mice, plasma, mean), the “elimination half-life (t1/2)” value turned out to be 0.757 h. The stability in plasma result in “Stability in plasma” was “stable”. At RyR2 [3], this compound came in with an IC50 of 1930 nM. On RyR2 [3] (incomplete maximal inhibition vs DMSO), the “maximal inhibition of [3H]ryanodine binding” value is “approximately 30%”. In the series with Casq2-/- mice [4], the QRS width result is “No changes” and the heart rate entry is reported as “No changes”.

Regarding ent-(+)-verticilide [ent-1], in [5], the “half-life (t1/2)” value is 6.92 h. Also, the IC50 (on RyR2 [6]; in series [7]) was 100 nM each time. In addition, in the series on Casq2-/- mice [8] (30 mg/kg, same arrhythmia induction protocol), the VT incidence is recorded as around 35%. Moreover, in the series on Casq2-/- mice [8] (single dose study at 3 and 30 mg/kg i.p.), the “antiarrhythmic efficacy in vivo” value is “had antiarrhythmic efficacy”.

verticilide B1: the “activity against RyR2” value in the series with RyR2 [9] is reported as “not active”. Also, in the series with insect RyR, the “activity against insect RyR” value is reported as “not active”.
